The results in this text go back to article PMC8213057, “Targeting ALK2: An Open Science Approach to Developing Therapeutics for the Treatment of Diffuse Intrinsic Pontine Glioma” (Journal of Medicinal Chemistry, 2020).

For experiment [1], the target named is FGFR1 (Homo sapiens, UniProt P11362). To be noted: 1 μM; Run 1, Run 2.
For experiment [2], the target named is T1, DMPK (Homo sapiens, UniProt Q09013).
T1 sequence (Q09013 1-629): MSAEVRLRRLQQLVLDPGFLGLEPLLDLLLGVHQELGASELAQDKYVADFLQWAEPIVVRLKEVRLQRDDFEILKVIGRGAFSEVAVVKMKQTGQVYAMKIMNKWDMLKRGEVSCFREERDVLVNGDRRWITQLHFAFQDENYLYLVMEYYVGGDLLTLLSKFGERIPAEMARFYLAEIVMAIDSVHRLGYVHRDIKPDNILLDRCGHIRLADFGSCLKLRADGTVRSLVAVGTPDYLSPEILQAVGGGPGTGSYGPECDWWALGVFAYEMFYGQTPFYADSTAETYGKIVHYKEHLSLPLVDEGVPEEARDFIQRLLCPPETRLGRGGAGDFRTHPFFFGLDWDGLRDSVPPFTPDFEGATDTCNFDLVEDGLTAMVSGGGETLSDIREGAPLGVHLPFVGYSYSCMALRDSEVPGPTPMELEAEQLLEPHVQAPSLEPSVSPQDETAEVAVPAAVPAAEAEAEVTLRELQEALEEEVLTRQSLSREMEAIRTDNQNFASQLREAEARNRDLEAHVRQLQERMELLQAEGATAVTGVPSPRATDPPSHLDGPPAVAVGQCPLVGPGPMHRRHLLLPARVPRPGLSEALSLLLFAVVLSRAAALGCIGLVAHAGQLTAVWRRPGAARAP
Kind of experiment: biochemical. As to conditions: read-out: % enzyme activity, 1 μM; Run 1, Run 2.

The target of experiment [3] is CDK16/cyclin Y (PCTAIRE) (Homo sapiens, UniProt Q00536). Description: biochemical. To be noted: read-out: % enzyme activity, 1 μM; Run 1, Run 2.
CDK16/cyclin Y (PCTAIRE), sequence (Q00536 whole entry): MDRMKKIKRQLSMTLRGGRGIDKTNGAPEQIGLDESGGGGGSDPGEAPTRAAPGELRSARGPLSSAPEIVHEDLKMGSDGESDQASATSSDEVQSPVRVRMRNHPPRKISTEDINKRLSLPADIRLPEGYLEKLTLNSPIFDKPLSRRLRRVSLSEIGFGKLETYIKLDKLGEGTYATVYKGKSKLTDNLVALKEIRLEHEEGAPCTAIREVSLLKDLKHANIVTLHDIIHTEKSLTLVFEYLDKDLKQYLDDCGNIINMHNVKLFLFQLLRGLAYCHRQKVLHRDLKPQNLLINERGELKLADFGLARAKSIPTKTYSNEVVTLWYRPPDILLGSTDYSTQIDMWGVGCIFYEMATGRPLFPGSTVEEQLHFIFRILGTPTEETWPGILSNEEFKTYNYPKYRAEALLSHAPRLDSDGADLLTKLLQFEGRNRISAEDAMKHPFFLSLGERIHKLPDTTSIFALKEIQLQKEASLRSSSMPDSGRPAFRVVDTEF
CDK16/cyclin Y (PCTAIRE), sequence (Q8ND76 whole entry partner): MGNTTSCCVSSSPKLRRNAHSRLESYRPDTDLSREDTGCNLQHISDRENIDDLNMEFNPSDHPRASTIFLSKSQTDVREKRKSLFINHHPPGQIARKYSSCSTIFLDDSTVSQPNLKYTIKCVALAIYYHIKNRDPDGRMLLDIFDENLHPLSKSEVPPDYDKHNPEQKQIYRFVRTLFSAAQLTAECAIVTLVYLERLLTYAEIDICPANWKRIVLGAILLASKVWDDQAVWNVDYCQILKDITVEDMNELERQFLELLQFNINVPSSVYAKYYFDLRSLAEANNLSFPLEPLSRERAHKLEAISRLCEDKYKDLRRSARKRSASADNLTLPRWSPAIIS
In experiment [4] the target is TESK2 (Homo sapiens, UniProt Q96S53). Kind of experiment: biochemical. To be noted: read-out: % enzyme activity, 1 μM; Run 1, Run 2.
TESK2, sequence (Q96S53 whole entry): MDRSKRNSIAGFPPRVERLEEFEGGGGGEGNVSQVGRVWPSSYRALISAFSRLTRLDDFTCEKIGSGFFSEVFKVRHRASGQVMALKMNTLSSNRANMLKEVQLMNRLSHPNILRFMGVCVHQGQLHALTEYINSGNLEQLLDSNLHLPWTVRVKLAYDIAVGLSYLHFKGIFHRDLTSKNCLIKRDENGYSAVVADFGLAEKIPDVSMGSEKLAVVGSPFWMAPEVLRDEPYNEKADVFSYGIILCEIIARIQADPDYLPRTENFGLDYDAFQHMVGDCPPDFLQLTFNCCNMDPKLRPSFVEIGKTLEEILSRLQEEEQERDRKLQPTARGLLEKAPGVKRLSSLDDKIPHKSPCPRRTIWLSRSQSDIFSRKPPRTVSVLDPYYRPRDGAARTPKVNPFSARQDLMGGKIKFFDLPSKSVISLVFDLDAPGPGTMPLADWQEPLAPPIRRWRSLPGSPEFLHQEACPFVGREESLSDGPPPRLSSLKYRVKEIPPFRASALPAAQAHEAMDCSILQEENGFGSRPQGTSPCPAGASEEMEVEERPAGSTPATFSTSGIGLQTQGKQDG
Experiment [5] concerns the target MRCKb/CDC42BPB (Homo sapiens, UniProt Q9Y5S2). Description: biochemical. To be noted: read-out: % enzyme activity, 1 μM; Run 1, Run 2.
The target of experiment [6] is T2, MEKK6 (Homo sapiens, UniProt O95382).
T2 sequence (O95382 1-1288): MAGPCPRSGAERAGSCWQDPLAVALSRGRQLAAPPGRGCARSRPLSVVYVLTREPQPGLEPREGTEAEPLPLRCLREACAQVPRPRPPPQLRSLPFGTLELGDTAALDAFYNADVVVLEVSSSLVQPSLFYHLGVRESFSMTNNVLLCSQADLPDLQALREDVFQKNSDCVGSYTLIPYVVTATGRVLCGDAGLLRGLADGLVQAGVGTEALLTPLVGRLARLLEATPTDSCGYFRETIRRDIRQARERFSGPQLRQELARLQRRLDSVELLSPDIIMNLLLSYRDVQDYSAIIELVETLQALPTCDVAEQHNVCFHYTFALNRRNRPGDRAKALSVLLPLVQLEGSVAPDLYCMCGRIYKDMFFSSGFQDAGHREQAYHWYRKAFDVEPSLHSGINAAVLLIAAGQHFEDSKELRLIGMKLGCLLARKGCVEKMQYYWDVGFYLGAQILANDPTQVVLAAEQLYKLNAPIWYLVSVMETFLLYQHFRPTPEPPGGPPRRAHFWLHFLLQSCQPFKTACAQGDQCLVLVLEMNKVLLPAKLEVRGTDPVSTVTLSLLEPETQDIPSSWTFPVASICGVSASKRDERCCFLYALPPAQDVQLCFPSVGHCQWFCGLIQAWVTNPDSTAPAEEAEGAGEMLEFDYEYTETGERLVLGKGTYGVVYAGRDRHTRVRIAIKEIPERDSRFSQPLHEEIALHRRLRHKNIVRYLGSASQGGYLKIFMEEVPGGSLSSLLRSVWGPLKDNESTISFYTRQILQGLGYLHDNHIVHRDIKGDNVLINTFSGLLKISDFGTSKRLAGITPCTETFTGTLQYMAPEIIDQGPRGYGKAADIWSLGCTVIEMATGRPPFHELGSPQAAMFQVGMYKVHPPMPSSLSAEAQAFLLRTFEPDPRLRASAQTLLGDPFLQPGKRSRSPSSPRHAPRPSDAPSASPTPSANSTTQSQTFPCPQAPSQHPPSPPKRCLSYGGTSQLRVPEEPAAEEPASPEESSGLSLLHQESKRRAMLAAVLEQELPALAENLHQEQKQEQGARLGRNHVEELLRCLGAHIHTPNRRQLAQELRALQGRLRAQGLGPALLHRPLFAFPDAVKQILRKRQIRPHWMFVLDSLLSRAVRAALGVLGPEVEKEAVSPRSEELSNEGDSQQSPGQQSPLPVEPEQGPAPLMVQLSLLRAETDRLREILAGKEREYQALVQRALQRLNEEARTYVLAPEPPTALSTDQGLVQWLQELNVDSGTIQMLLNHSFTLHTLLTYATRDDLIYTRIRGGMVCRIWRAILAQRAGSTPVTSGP
To be noted: 1 μM; Run 1, Run 2.

FGFR1, sequence (P11362 22-822): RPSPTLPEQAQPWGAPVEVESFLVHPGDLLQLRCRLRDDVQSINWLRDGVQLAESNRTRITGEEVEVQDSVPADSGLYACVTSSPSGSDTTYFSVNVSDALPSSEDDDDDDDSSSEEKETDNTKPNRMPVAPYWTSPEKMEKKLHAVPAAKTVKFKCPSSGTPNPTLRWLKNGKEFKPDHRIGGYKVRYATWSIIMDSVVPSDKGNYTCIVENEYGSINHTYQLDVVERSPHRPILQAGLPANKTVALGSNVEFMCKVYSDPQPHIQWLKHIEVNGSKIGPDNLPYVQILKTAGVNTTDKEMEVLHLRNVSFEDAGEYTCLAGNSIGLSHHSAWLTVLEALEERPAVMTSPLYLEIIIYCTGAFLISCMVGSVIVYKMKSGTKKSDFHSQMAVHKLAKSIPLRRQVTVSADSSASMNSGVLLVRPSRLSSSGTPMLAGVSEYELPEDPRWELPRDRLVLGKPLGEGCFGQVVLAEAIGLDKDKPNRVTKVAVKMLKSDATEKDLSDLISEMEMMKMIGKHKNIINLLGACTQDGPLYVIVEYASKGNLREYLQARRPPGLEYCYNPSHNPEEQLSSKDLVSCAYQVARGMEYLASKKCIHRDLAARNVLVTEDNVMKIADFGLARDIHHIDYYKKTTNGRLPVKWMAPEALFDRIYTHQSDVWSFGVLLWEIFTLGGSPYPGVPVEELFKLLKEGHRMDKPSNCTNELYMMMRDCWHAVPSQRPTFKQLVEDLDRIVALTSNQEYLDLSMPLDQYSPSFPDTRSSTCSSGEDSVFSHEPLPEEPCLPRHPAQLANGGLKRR
MRCKb/CDC42BPB, sequence (Q9Y5S2 whole entry): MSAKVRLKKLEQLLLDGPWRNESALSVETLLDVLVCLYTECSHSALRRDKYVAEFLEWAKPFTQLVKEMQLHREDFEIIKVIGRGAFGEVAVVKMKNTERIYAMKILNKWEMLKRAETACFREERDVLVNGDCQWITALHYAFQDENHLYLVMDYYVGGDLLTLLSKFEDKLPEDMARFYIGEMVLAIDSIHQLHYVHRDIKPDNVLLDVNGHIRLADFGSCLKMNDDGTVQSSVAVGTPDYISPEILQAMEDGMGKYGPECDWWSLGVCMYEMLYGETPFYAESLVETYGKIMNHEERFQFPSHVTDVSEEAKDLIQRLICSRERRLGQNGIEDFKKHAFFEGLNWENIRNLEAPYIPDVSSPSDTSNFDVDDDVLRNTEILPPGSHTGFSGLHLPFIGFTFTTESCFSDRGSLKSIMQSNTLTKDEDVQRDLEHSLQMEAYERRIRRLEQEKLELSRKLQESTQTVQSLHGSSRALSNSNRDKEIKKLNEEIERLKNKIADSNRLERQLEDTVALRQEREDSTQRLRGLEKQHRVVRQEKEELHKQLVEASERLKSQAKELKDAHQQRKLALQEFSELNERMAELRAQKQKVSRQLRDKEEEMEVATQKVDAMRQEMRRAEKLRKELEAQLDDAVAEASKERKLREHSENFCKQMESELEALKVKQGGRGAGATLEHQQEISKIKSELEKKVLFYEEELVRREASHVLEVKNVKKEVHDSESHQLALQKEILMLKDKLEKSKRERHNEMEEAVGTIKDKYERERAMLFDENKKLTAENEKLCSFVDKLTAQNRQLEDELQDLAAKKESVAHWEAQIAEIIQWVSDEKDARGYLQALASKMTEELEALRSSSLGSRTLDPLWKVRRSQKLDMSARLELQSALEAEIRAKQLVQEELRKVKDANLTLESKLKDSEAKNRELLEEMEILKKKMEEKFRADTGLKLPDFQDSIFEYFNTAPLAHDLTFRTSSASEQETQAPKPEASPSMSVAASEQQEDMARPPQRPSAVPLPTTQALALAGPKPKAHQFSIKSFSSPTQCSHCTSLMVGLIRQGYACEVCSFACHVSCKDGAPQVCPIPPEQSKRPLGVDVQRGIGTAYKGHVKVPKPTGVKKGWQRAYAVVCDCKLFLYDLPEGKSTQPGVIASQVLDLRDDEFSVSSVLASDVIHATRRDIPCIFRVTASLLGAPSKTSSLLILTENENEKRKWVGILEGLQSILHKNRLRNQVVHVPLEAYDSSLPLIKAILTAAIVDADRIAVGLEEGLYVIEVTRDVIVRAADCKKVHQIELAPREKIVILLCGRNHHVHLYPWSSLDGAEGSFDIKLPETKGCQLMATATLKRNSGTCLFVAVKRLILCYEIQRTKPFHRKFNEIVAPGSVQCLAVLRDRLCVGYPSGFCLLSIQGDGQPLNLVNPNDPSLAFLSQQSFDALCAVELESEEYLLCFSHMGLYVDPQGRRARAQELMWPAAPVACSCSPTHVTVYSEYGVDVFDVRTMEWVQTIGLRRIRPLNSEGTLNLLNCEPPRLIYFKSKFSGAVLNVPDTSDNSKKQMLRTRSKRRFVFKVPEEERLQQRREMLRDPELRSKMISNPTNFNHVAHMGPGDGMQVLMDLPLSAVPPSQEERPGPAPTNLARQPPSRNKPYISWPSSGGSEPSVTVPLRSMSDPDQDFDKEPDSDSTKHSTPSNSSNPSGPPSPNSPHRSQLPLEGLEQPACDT

With `COc1cc(-c2cncc(-c3ccc(N4CCN(C)CC4)cc3)c2C)cc(F)c1C(N)=O` [Compound 26a, 2-Fluoro-6-methoxy-4-(4-methyl-5-(4-(4-methylpiperazin-1-yl)phenyl)pyridin-3-yl)benzamide], the entries for the “% enzyme activity” value in experiment [1] and in experiment [6] were 96.52% and 96.75%, respectively. Further, the remaining activity at 1 µM in experiment [2] was 109%; in experiment [3], 92.8%; in experiment [4], 93.9%; in experiment [5], 94.6%.
For the compound `COc1cc(-c2cncc(-c3ccc(N4C[C@@H](C)N(C)[C@@H](C)C4)cc3)c2C)cc(F)c1C(N)=O` [Compound 26c, 2-Fluoro-6-methoxy-4-(4-methyl-5-(4-((3R,5S)-3,4,5-trimethylpiperazin-1-yl)phenyl)pyridin-3-yl)benzamide], the “% enzyme activity” value in experiment [1] is reported as 99.91%; in experiment [6] it was 95.16%. Besides, the remaining activity at 1 µM in experiment [2] came to 105%; in experiment [3], 91.6%; in experiment [4], 92.2%; in experiment [5] it was 99.7%.
